Laboratory results: US20220273629A1, “METHODS OF TREATING DISORDERS ASSOCIATED WITH ELEVATED LEVELS OF ANTIBODIES THAT INTERACT WITH THE NMDA RECEPTOR” (Aptinyx Inc., priority 2019, published 2022)

Legend:
[1] = target: T1, NR2B surface expression in hNR1/PSD95/NR2B expressing HEK cells (Homo sapiens, UniProt Q13224); experiment: β-lactamase assay, NR2B surface expression, compound alone (absence of Ab), wild-type; assay type: cell-based; conditions: for surface NR2B expression in wild-type NR2B receptors relative to untreated vehicle controls: no antibody, varying concentrations, FIG. 6A-6C
T1 construct: expressed in transfected cells; transient β-lactamase-hGluN2B
Experimental: (§1) Un-transfected (Untfx) cells were used as a negative control for surface β-lactamase activity.
(§2) hNR1/PSD95/NR2B-expressing HEK cells tagged with a β-lactamase enzyme at the N-terminus of NR2B are incubated with a 1:50 dilution of purified patient serum IgG for 45 min. The cells are washed with buffer to remove antibodies and then incubated for 15 min in the presence or absence of each of compounds A, B, or C at concentrations of 10 fM, 1 pM, 100 pM and 10 nM respectively. After said time, the membrane impermeable substrate nitrocefin and ±each of compounds A, B, and C are added. The NR2B N-terminal β-lactamase cleaves nitrocefin, resulting in a change of absorbance to 486 nm. The absorbance at 486 nm is measured every minute for 30 min.
(§3) Un-transfected (Untfx) cells were used as a negative control for surface β-lactamase activity. Human IgG (Sigma-Aldrich) at a concentration of 0.5 mg/ml was used as a negative control for non-specific receptor internalization.
(§4) HEK293 cells stably expressing human GluN1 and PSD-95 were transiently transfected with hGluN2B tagged at the N-terminus with the β-lactamase enzyme using X-tremeGENE9 transfection reagent (Sigma-Aldrich). Transfected cultures were maintained in media containing ketamine (0.18 mg/ml) to minimize excitotoxicity. Twenty-four hours after transfection, cells were re-plated into poly-d-lysine coated 96-well plates at a concentration of 30,000 cells/well. The following day, cells were washed with buffer (HBSS, 10 mM HEPES, […]) and then incubated with a 1:50 dilution of purified patient IgG for 45 min at 37° C. The cells were washed once with buffer and then incubated for 15 min at 37° C. with buffer ±each of compound A, B and C. Nitrocefin in buffer (100 mM final; Cayman Chemical) ±each of compound A, B and C was added to each well and absorbance at 486 nm was measured every minute for 30 min at 37° C. in a plate reader. Un-transfected (Untfx) cells were used as a negative control for surface β-lactamase activity. Human IgG (Sigma-Aldrich) at a concentration of 0.5 mg/ml was used as a negative control for non-specific receptor internalization. Slopes of optical density are graphed as fold change over vehicle, mean ±SEM (n=8-12). Statistics were determined by one-way ANOVA compared to antibody only (Ab).

[2] = target: T1, NR2B surface expression in hNR1/PSD95/NR2B expressing HEK cells; experiment: β-lactamase assay, restoration of NR2B surface expression after purified ANRE patient serum IgG; assay type: cell-based; conditions: varying concentrations, FIG. 6A-6C
[3] = target: T1, NR2B surface expression in hNR1/PSD95/NR2B expressing HEK cells; experiment: as above; assay type: cell-based; conditions: 45 min purified patient serum IgG 1:50, then 15 min compound at 10 fM, 1 pM, 100 pM, 10 nM; FIG. 1 / FIG. 3
Experimental: as §1, §2
Slopes of optical density are graphed as fold change over the vehicle. N=8; Statistics were determined by one-way ANOVA compared to antibody only (Ab). * p≤0.05, ** p≤0.01, *** p≤0.001, **** p≤0.0001 (FIG. 1).
as §3
hNR1/PSD95/NR2B expressing HEK cells tagged with a β-lactamase enzyme at the N-terminus of NR2B are incubated with purified patient serum IgG (1:50 dilution) for 45 min. The cells are washed to remove antibodies and then incubated for 15 min in the presence or absence of each of compounds A, B, C, D, E, F, G, and H at concentrations of 10 fM, 1 pM, 100 pM and 10 nM respectively. After said time, nitrocefin in buffer and ±each of compounds A-H are added and the absorbance at 486 nm is measured every minute for 30 min.
Slopes of optical density are graphed as fold change over the vehicle. N=8-12; Statistics were determined by one-way ANOVA compared to antibody only (Ab). * p≤0.05, ** p≤0.01, *** p≤0.001, **** p≤0.0001 (FIG. 3).
as §4

[4] = target: T1, NR2B surface expression in hNR1/PSD95/NR2B expressing HEK cells; experiment: β-lactamase assay, restoration of NR2B surface expression after ANRE patient CSF; assay type: cell-based; conditions: after CSF (1:10 dilution) from ANRE patients N1, N2, N3; FIG. 2
Experimental: In this example hNR1/PSD95/NR2B expressing HEK cells tagged with a β-lactamase enzyme at the N-terminus of NR2B are incubated with CSF (1:10 dilution) from each of three individual ANRE patients (N1, N2, and N3).
as §4, with “The cells were washed once with buffer and then incubated for 15 min at 37° C. with buffer ±each of compound A, B and C. Nitrocefin in buffer (100 mM final; Cayman Chemical) ±each of compound A, B and C was added to each well and absorbance at 486 nm was measured every minute for 30 min at 37° C. in a plate reader.” left out

[5] = target: T2, NR2B:R393A mutant receptors (Homo sapiens, UniProt Q13224, R393A); experiment: β-lactamase assay, NMDAR 2B trafficking in mutant R393A receptors; assay type: cell-based; conditions: FIG. 6A-6C; for ability to restore cell surface NR2B expression in NR2B:R393A mutant following ANRE patient serum IgG: after exposure to ANRE patient serum IgG
T2 construct: expressed in transfected cells; transient β-lactamase-hGluN2B R393A
Experimental: as §3, §4

[6] = tested on: Schaffer collateral-CA1 synapses in hippocampal slices; experiment: Hippocampal slice LTP (fEPSP slope) with focal NR1 antibody application; assay type: cell-based, rat; conditions: 500 nM bath-applied, FIG. 5B
From the text: Two extracellular recording patch pipettes were placed at equal distances (˜500 μm) on either side of a single bipolar stainless steel stimulating electrode (Frederick Haer Inc.). A single test stimulus was applied each 30 seconds, to evoke field excitatory postsynaptic potentials (fEPSPs) recorded simultaneously at the Control and Antibody (Ab) recording sites. […]
LTP was induced by the stimulation of Schaffer collateral axons with high frequency theta burst stimulus trains. The fEPSP slope was measured before and after the induction of LTP in hippocampal slices treated with control, control +NR1Ab, Compound A, or Compound A +NR1Ab.
The experimental protocol to test the effects of focal application of NR1 antibodies on synaptic transmission and long-term potentiation (LTP) of synaptic strength at Schaffer collateral-CA1 synapses in hippocampal slices in vitro is illustrated in FIG. 5A below. […] A single test stimulus was applied each 30 seconds, to evoke field excitatory postsynaptic potentials (fEPSPs) recorded simultaneously at the Control and Antibody (Ab) recording sites. […] Statistics were determined by Student's t-test for unpaired data.

T1 sequence (Q13224 27-1484, other chains not shown): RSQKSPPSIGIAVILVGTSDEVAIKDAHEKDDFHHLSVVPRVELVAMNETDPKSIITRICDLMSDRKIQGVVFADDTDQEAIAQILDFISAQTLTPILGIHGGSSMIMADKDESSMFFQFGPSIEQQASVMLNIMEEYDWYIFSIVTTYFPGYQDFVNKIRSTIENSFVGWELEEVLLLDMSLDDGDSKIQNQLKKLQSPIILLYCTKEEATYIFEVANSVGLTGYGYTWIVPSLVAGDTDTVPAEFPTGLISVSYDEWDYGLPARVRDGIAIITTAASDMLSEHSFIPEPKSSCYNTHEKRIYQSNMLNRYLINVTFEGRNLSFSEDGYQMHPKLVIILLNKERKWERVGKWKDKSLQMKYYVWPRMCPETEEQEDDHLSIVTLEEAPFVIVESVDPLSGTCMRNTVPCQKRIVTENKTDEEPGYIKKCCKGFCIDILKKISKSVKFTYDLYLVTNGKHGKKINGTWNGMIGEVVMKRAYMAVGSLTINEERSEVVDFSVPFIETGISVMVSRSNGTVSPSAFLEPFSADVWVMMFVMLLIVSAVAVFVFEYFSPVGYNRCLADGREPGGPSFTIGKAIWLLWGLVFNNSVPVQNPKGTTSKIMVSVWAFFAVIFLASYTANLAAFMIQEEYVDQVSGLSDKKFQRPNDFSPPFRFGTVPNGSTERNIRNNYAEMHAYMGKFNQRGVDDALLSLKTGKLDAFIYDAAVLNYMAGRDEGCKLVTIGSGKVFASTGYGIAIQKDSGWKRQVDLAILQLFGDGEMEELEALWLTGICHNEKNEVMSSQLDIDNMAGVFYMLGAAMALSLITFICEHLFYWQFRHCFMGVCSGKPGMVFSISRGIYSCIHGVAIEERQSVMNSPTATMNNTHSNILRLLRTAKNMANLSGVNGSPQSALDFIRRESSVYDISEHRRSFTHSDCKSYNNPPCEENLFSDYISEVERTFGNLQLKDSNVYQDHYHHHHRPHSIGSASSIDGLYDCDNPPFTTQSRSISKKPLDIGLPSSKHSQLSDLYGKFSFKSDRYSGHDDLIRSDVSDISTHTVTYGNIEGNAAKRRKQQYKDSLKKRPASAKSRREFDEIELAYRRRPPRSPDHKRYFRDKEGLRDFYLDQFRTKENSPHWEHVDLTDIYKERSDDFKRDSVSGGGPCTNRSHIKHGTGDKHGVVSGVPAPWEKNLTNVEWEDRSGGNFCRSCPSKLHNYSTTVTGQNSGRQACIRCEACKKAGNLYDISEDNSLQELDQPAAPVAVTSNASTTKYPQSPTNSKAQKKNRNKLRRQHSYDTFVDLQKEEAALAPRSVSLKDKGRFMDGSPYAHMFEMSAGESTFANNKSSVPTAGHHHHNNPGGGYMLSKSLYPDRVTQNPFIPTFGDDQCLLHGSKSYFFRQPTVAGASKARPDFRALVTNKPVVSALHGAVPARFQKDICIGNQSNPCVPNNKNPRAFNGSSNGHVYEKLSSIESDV
T2 sequence (Q13224 27-1484 R393A, other chains not shown): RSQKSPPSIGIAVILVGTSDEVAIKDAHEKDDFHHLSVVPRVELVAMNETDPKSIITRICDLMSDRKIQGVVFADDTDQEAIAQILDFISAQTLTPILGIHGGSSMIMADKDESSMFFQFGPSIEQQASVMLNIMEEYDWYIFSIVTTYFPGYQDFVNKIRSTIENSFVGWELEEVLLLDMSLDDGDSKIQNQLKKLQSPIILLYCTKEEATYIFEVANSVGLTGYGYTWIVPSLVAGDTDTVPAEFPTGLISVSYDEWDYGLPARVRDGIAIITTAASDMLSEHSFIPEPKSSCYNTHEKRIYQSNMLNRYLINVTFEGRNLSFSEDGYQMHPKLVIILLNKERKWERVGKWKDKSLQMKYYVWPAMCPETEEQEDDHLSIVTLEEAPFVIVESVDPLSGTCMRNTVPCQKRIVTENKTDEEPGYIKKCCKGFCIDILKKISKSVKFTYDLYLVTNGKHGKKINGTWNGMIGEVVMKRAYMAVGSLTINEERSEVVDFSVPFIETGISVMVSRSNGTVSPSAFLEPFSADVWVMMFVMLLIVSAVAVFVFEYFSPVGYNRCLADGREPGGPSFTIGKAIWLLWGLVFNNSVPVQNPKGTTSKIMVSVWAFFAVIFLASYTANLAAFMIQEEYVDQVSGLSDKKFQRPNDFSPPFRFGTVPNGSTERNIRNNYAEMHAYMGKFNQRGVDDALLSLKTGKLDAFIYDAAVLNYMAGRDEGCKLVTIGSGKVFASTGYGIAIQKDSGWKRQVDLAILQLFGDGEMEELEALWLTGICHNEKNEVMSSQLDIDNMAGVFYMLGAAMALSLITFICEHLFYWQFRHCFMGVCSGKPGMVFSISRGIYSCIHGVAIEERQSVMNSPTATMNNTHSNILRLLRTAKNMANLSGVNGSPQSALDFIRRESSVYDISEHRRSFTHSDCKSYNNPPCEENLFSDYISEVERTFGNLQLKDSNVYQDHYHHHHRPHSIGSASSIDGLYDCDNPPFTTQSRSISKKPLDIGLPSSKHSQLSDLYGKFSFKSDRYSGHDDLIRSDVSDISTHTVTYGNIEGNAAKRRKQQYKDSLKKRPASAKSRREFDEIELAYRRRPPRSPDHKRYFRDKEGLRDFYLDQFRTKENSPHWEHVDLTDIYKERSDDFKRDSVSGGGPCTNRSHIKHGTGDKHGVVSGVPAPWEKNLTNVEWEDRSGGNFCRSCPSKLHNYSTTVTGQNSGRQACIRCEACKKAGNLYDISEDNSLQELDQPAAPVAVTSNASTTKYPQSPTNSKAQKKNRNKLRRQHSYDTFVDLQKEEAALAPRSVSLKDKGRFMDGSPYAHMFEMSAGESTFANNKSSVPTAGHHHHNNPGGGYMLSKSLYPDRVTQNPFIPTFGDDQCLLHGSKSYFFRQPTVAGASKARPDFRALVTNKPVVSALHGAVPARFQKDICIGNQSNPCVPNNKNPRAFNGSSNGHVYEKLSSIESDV

Compound	surface NR2B expression in wild-type NR2B receptors relative to untreated vehicle controls [1]	restoration of NR2B surface expression to "No Ab" control level, wild-type NR2B (Example 6) [2]	restoration of NR2B surface expression to "No Ab" control level [3]	restoration of cell surface NR2B expression to vehicle levels [4]	ability to restore cell surface NR2B expression in NR2B:R393A mutant [5]	ability to restore cell surface NR2B expression in NR2B:R393A mutant following ANRE patient serum IgG [5]	increase in cell surface NR2B expression ([1]; 1 pM, in the absence of Ab, positive control, wild-type)	rescue of Schaffer collateral-CA1 LTP from acute NMDAR1 antibody effects ([6]; NR1 antibody 1:20 dilution)	magnitude of LTP relative to control ([6]; after high frequency stimulation, no antibody)
CC(C)C(=O)N1CCC[C@@]12CN([C@H](C(N)=O)[C@@H](C)O)C2=O [B]	increase surface NR2B expression	restore NR2B surface expression to levels observed in the “No Ab” control	restore NR2B surface expression to levels observed in the “No Ab” control	restored cell surface NR2B expression to vehicle levels	abolishes the ability	abolishes the ability			
COc1ccc(CN2C[C@@]3(CCNC(=O)C3)C2=O)cc1 [C]	increase surface NR2B expression	restore NR2B surface expression to levels observed in the “No Ab” control	restore NR2B surface expression to levels observed in the “No Ab” control	restored cell surface NR2B expression to vehicle levels	abolishes the ability	abolishes the ability			
CC(C)C(=O)N1CCC[C@]12CN([C@H](C(N)=O)[C@@H](C)O)C2=O [Compound A]	increase surface NR2B expression	restore NR2B surface expression to levels observed in the “No Ab” control	restore NR2B surface expression to levels observed in the “No Ab” control	restored cell surface NR2B expression to vehicle levels	abolishes the ability	abolishes the ability	~20%	rescues Schaffer collateral-CA1 LTP	increased the magnitude of LTP
COc1ccc(CN2C[C@]3(CCNC(=O)C3)C2=O)cc1 [Compound D]			failed to restore NR2B surface expression						
CC(C)CN1CCC[C@]12CN([C@H](C(N)=O)[C@@H](C)O)C2=O [E]			failed to restore NR2B surface expression						
CC(C)CN1CCC[C@@]12CN([C@H](C(N)=O)[C@@H](C)O)C2=O [F]			failed to restore NR2B surface expression						
CC(C)CN1[C@@]2(CC[C@@]13CNC3=O)CNC2=O [G]			failed to restore NR2B surface expression						
CC(C)CN1[C@]2(CC[C@]13CNC3=O)CNC2=O [H]			failed to restore NR2B surface expression						
